Test results published in patent US9809582B2, “Aminoester derivatives” (CHIESI FARMACEUTICI S.p.A., priority 2015, dated 2017).
Like-named read-outs stand apart in the source and are kept apart here.

What was measured:
Human recombinant PDE4B2 = Human recombinant PDE4B2 (Homo sapiens (Human), UniProt Q07343); assay: PDE4B2 HTRF assay; assay type: biochemical
Method: PDE4B2 activity is detected using the LANCE Ultra cAMP homogeneous time resolved fluorescence resonance energy transfer (TR-FRET) assay from Perkin Elmer. The assay is based on the competition between the europium (Eu) chelate-labeled cAMP tracer and sample cAMP for binding sites on cAMP-specific monoclonal antibodies (mAb) labelled with the ULight™ dye. The assay is carried out in 384-well low volume plates in a volume of 10 μl. Human recombinant PDE4B2 (80 pM) is incubated for 2 h with 3 nM cAMP in buffer containing 1×HBSS, 5 mM HEPES, 3 mM MgCl2, 0.1% BSA, pH 7.4 with or without test compounds. The enzymatic reactions are efficiently stopped by the addition of 500 μM IBMX present in the combined Stop/Detection buffer containing europium (Eu) chelate-labeled cAMP tracer and cAMP-specific monoclonal antibodies (mAb) labelled with the ULight™ dye. […] IC50 values are determined from competition curves using a non-linear curve fitting program.

Human M3 receptor = Human M3 receptor (Homo sapiens (Human), UniProt P20309); assay: M3 receptor radioligand binding assay
Method: M3 Receptor Radioligand Binding Assay:
The assay is carried out in 96-well polypropylene plates in a volume of 250 μl. […] The final assay concentration of DMSO is 0.5% (v/v). The plates are sealed and incubated for 2 h at room temperature on an orbital shaker (slow speed). Membranes are harvested onto 96-well unifilter GF/C filter plates pre-treated with 0.5% polyethyleneimine (v/v), using a filter manifold, washed four times with […] of assay buffer. The plates are dried before addition of 50 μl of microscint-0, sealed then read in a Trilux Microbeta scintillation counter. IC50 values are determined from competition curves using a non-linear curve fitting program. Ki values are calculated from IC50 values by the Cheng and Prusoff equation.

[1] = cited from earlier work
[2] = PDE4B2 HTRF assay, read-out: PDE4B2 IC50 Activity
[3] = M3 Receptor radioligand binding assay, read-out: M3 IC50 Activity
[4] = patients with severe disease, frequent exacerbations and mucus hypersecretion

Sequence of Human M3 receptor (P20309 whole entry): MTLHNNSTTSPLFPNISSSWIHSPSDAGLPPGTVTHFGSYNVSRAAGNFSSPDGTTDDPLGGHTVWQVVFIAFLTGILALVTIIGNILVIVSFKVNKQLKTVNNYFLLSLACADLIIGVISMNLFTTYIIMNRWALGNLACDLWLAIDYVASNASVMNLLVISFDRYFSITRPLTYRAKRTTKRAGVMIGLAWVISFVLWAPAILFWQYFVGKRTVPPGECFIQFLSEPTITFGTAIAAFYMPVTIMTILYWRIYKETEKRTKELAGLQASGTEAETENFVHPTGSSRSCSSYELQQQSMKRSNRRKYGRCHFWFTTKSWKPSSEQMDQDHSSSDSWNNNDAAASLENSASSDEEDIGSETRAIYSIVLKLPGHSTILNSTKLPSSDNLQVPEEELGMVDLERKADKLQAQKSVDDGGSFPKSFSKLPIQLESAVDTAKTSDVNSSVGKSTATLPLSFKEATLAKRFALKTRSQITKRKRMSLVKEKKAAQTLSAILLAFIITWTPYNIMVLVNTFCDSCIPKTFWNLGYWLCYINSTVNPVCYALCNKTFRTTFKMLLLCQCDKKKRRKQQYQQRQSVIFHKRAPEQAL
Sequence of Human recombinant PDE4B2 (Q07343 other isoform, or with tags, fused parts or gaps): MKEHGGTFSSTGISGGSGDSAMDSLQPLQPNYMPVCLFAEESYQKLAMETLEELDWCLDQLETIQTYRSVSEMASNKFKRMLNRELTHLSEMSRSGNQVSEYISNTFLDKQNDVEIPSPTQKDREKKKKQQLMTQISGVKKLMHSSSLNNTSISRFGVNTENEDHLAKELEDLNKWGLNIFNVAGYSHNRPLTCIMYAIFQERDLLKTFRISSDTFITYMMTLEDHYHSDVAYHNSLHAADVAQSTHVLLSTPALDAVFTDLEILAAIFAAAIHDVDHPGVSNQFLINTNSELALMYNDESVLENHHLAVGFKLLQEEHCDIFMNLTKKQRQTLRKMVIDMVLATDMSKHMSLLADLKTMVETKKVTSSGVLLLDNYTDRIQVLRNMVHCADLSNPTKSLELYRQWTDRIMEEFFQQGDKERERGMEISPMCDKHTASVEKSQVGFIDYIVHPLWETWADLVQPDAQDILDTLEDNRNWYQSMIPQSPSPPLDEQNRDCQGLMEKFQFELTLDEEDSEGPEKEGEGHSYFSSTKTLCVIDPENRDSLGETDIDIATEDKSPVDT

With `COc1ccc([C@H](Cc2c(Cl)c[n+]([O-])cc2Cl)OC(=O)c2ccc(CNCC(C(=O)OCCN(C)C)c3ccccc3)s2)cc1OC` (stereo partly drawn) [Example 22, [(1S)-2-(3,5-dichloro-1-oxido-pyridin-1-ium-4-yl)-1-(3,4-dimethoxyphenyl)ethyl] 5-[[[3-(2-dimethylaminoethyloxy)-3-oxo-2-phenyl-propyl]amino]methyl]thiophene-2-carboxylate] as the compound, how does the IC50 (Human recombinant PDE4B2; [2]) read?
The IC50 was 1 to 10 nM.

What about the IC50 (Human M3 receptor; [3]) of the same compound?
Its IC50 is 1 to 10 nM.

What does the source list for `COc1ccc([C@H](Cc2c(Cl)c[n+]([O-])cc2Cl)OC(=O)c2ccc(CNCC(C)(C(=O)OC3CCN(C)CC3)c3ccccc3)s2)cc1OC` (stereo partly drawn) [Example 25, [(1S)-2-(3,5-dichloro-1-oxido-pyridin-1-ium-4-yl)-1-(3,4-dimethoxyphenyl)ethyl] 5-[[[2-methyl-3-[(1-methyl-4-piperidyl)oxy]-3-oxo-2-phenyl-propyl]amino]methyl]thiophene-2-carboxylate]?
IC50 (Human recombinant PDE4B2; [2]): 1 to 10 nM; IC50 (Human M3 receptor; [3]): 10 to 100 nM

With `COc1ccc([C@H](Cc2c(Cl)c[n+]([O-])cc2Cl)OC(=O)c2ccc(CN(C)CC(C)(C(=O)O[C@H]3CN4CCC3CC4)c3ccccc3)s2)cc1OC` (stereo partly drawn) [Example 26, [(1S)-2-(3,5-dichloro-1-oxido-pyridin-1-ium-4-yl)-1-(3,4-dimethoxyphenyl)ethyl] 5-[[methyl-[2-methyl-3-oxo-2-phenyl-3-[(3R)-quinuclidin-3-yl]oxy-propyl]amino]methyl]thiophene-2-carboxylate] as the compound, how does the IC50 (Human recombinant PDE4B2; read-out: PDE4B2 IC50 Activity) read?
The IC50 was 1 to 10 nM.

And the IC50 (Human M3 receptor; read-out: M3 IC50 Activity)?
The IC50 was 1 to 10 nM.

For `COc1ccc([C@H](Cc2c(Cl)c[n+]([O-])cc2Cl)OC(=O)c2ccc(CNCC(C)(C(=O)OCCN(C)C)c3ccccc3)s2)cc1OC` (stereo partly drawn) [Example 29, [(1S)-2-(3,5-dichloro-1-oxido-pyridin-1-ium-4-yl)-1-(3,4-dimethoxyphenyl)ethyl] 5-[[[3-(2-dimethylaminoethyloxy)-2-methyl-3-oxo-2-phenyl-propyl]amino]methyl]thiophene-2-carboxylate], which IC50 (Human recombinant PDE4B2; [2]) is on record?
Its IC50 is 1 to 10 nM.

And the IC50 (Human M3 receptor; [3])?
The IC50 was 10 to 100 nM.

With `COc1ccc([C@H](Cc2c(Cl)c[n+]([O-])cc2Cl)OC(=O)c2ccc(CNCC(C)(C(=O)O[C@H]3CN4CCC3CC4)c3ccccc3)s2)cc1OC` (stereo partly drawn) [Example 31, [(1S)-2-(3,5-dichloro-1-oxido-pyridin-1-ium-4-yl)-1-(3,4-dimethoxyphenyl)ethyl] 5-[[[2-methyl-3-oxo-2-phenyl-3-[(3R)-quinuclidin-3-yl]oxy-propyl]amino]methyl]thiophene-2-carboxylate] as the compound, how does the IC50 (Human recombinant PDE4B2) read?
The IC50 was 1 to 10 nM.

And the IC50 (Human M3 receptor; M3 IC50 Activity)?
The IC50 was 10 to 100 nM.

Which IC50 (Human recombinant PDE4B2; [2]) does the source give for `COc1ccc([C@H](Cc2c(Cl)c[n+]([O-])cc2Cl)OC(=O)c2ccc(CNC3CC(C(=O)OC4CCN(C)CC4)(c4ccccc4)C3)s2)cc1OC` (stereo partly drawn) [Example 32, [(1S)-2-(3,5-dichloro-1-oxido-pyridin-1-ium-4-yl)-1-(3,4-dimethoxyphenyl)ethyl] 5-[[[3-[(1-methyl-4-piperidyl)oxycarbonyl]-3-phenyl-cyclobutyl]amino]methyl]-thiophene-2-carboxylate] here?
Its IC50 is < 1 nM.

What about the IC50 (Human M3 receptor; [3]) of the same compound?
Its IC50 is 10 to 100 nM.

Which IC50 (Human recombinant PDE4B2) does the source give for `COc1ccc([C@H](Cc2c(Cl)c[n+]([O-])cc2Cl)OC(=O)c2ccc(CNC3CC(C(=O)O[C@H]4CN5CCC4CC5)(c4ccccc4)C3)s2)cc1OC` (stereo partly drawn) [Example 33, [(1S)-2-(3,5-dichloro-1-oxido-pyridin-1-ium-4-yl)-1-(3,4-dimethoxyphenyl)ethyl] 5-[[[3-phenyl-3-[(3R)-quinuclidin-3-yl]oxycarbonyl-cyclobutyl]amino]methyl]thiophene-2-carboxylate] here?
The IC50 was 1 to 10 nM.

And the IC50 (Human M3 receptor; M3 IC50 Activity)?
The IC50 was 1 to 10 nM.

For `COc1ccc([C@H](Cc2c(Cl)c[n+]([O-])cc2Cl)OC(=O)c2ccc(CNC3CC(C(=O)O[C@H]4CN5CCC4CC5)(c4ccccc4)C3)s2)cc1OC` (stereo partly drawn) [Example 37, [(1S)-2-(3,5-dichloro-1-oxido-pyridin-1-ium-4-yl)-1-(3,4-dimethoxyphenyl)ethyl] 5-[[[3-phenyl-3-[(3R)-quinuclidin-3-yl]oxycarbonyl-cyclobutyl]amino]methyl]thiophene-2-carboxylate], which IC50 (Human recombinant PDE4B2; read-out: PDE4B2 IC50 Activity) is on record?
Its IC50 is 1 to 10 nM.

And the IC50 (Human M3 receptor; read-out: M3 IC50 Activity)?
Its IC50 is 1 to 10 nM.

Which “reduction of the numbers of neutrophils in sputum” value ([1]; COPD patients, oral, given over four weeks) does the source give for `O=C(Nc1c(Cl)cncc1Cl)c1ccc(OC(F)F)c(OCC2CC2)c1` [roflumilast] here?
The value was 36%.

What about the “improvement of FEV 1” value [1, 4] of the same compound?
The value was “approximately 50 mL”.

And the reduction of exacerbation [1, 4]?
Its reduction of exacerbation is “about 15%”.
